Converted amounts (≈) assume the structure as drawn. Like-named read-outs stand apart in the source and are kept apart here.
How the values were obtained:
[1] = Solubility profile of dapivirine; format: physicochemical; settings: for solubility: read-out: Solubility Profile (Low Solubility)
Method: As used herein, the term “dapivirine” refers to (4-[[4-[(2,4,6-trimethylphenyl)amino]-2-pyrimidinyl]amino]benzonitrile), a non-nucleoside reverse transcriptase inhibitor. Dapivirine is useful in the prevention and/or treatment of retroviral infection, such as HIV-1 infection. It is a crystalline compound that is white to slightly beige in color, has a melting point of about 220° C. and is virtually insoluble in water. More specifically, the solubility of dapivirine is less than 0.001 mg/gm of water (i.e., less than 1 μg/ml of water). The intravaginal rings of the instant invention may use micronized dapivirine.

[2] = test system: wild-type HIV-1 strains and HIV-1 strains harboring different resistance-inducing mutations; settings: wild-type and resistance-mutant strains; cited from earlier work
[3] = Log P (n-octanol and buffer); format: physicochemical; settings: at pH 9.0

Compound: Cc1cc(C)c(Nc2ccnc(Nc3ccc(C#N)cc3)n2)c(C)c1 [dapivirine, 4-[[4-[(2,4,6-trimethylphenyl)amino]-2-pyrimidinyl]amino]benzonitrile]
- solubility ([1]; 0.1N HCl, simulated gastric fluid): 0.28 mg/mL (≈ 850 µM)
- Solubility Profile (Low Solubility) ([1]; PEG 400): PEG 400 = 47.4 mg/g
- Solubility Profile (Low Solubility) ([1]; Propylene Glycol): Propylene Glycol = 2.69 mg/g
- solubility ([1]; water): > 0.001 mg/mL
- activity against HIV-1 strains [2]: potent activity
- logP [3]: 5.27

Reference: patent US9427400B2, “Platinum-catalyzed intravaginal rings” (International Partnership for Microbicides, priority 2013, dated 2016)
